In ChEMBL document CHEMBL1126509, “Trisnorsqualene methyl hydroxylamine: a potent dual inhibitor of mammalian squalene epoxidase and oxidosqualene cyclase” (Bioorg Med Chem Lett, 1993):
pIC50: −log10 of the molar value.

Columns and labels:
[1] = Inhibitory concentration at which 50% decrease in the activity of Squalene epoxidase and Oxidosqualene cyclase in pig liver microsomes; parameters: species or system Sus scrofa, Microsome
[2] = Inhibitory concentration at which 50% decrease in the activity of Squalene epoxidase and Oxidosqualene cyclase in pig liver microsomes; NI means no inhibition; parameters: species or system Sus scrofa, Microsome
[3] = Inhibitory concentration at which 50% decrease in the activity of Squalene epoxidase in pig liver microsomes; NI means no inhibition

| Compound | pIC50 [1] | IC50 [2] | IC50 [3] |
| --- | --- | --- | --- |
| CC(C)=CCC/C(C)=C/CC/C(C)=C/CC/C=C(\C)CC/C=C(\C)CC/C=C/[N+](=O)[O-] | < 3.40 | – | – |
| CC(C)=CCC/C(C)=C/CC/C(C)=C/CC/C=C(\C)CC/C=C(\C)CC/C=N/O | – | Not Active | Not Active |
| CC(C)=CCC/C(C)=C/CC/C(C)=C/CC/C=C(\C)CC/C=C(\C)CCC(O)C[N+](=O)[O-] (stereo not given) | 3.70 | – | – |
| CC(C)=CCC/C(C)=C/CC/C(C)=C/CC/C=C(\C)CC/C=C(\C)CCCN(C)O | 5.30 | – | – |
